Tested on: imiquimod-induced psoriasis
Experiment: Imiquimod-induced psoriasis model
Format: in vivo, mice
Settings: for auricular thickening and psoriatic symptoms: Example 21, N = 2
Protocol: Experimental psoriatic symptoms were induced in a mouse auricle by imiquimod. Six-week-old male C57BL/6 mice (N = 5) were acclimated for one week. On Days 1 to 7, 62.5 mg of 5% imiquimod cream (Beselna Cream 5%) (3.125 mg in terms of the active ingredient, manufactured by Mochida Pharmaceutical Co. Ltd.) was applied to the right auricle of the mice for 7 consecutive days (IMQ group). Once daily after the imiquimod application, the imeglimin administration group (IMQ + IMG group) received oral administration, at 40 mg/kg, of 500-mg Twymeeg (trademark) tablets (manufactured by Sumitomo Pharma Co. Ltd.) dissolved in physiological saline. The control group received an equal volume of physiological saline. On Day 8, the mice were euthanized by cervical dislocation, and auricle thickness was measured using a dial thickness gauge (manufactured by Adachi Sogyo Co., Ltd.).
Each excised mouse auricle was fixed in 4% paraformaldehyde at 4°C overnight. After ethanol substitution, the auricle was embedded in paraffin, sectioned using a rotary microtome Leica RM2165 (thickness, […]), and subjected to HE staining or immunohistochemical staining. For the immunohistochemical staining, the sections were deparaffinized, washed in xylene, and rehydrated through graded alcohols. The sections were incubated in DAKO at 95°C for 30 minutes. The sections were blocked at room temperature for 60 minutes and then incubated at room temperature for 2 hours to allow reaction with a TGM1 anti-rabbit polyclonal antibody (catalog number 12912-3-AP, manufactured by Proteintech). The sample was washed and then allowed to react with a secondary antibody (Alexa 544-conjugated secondary antibody (goat anti-rabbit IgG) (manufactured by Molecular Probes)) at room temperature for 60 minutes. After allowing reaction with DAPI at room temperature for 10 minutes, the sections were mounted with Fluoromount and imaged using a fluorescence microscope (BZ-X710, manufactured by Keyence).
The dorsal hair of mice was shaved and depilated (Day 0). To each of the left auricle and the depilated back of each mouse, 62.5 mg of 5% imiquimod cream (Beselna Cream 5%) was applied once daily a total of seven times (Days 1 to 7) in accordance with Example 18, to induce imiquimod-induced psoriasis (IMQ group). In the IMQ + IMG group, mice received oral administration of imeglimin (40 mg/kg) once daily (Day 1 to 7) after the imiquimod application. […] Thickness of the auricle was measured, and the degrees of erythema, desquamation, and infiltration in the affected area were rated on Days 1, 3, 5, 7, and 8 according to the PASI scoring of the DermNET Dermatology Resource (none: 0, mild: 1, moderate: 2, severe: 3, and very severe: 4). The resulting values were used to calculate the PASI score.
Further, for an auricle excised on Day 8, immunohistochemical staining was performed in the same manner as in Example 18, and auricular sections were imaged using a fluorescence microscope (BZ-X710; manufactured by Keyence Corporation).
On Days 1, 2, 3, 5, and 6, 62.5 mg of 5% imiquimod cream (Beselna Cream 5%) was applied to auricles of wild-type mice (IMQ) or VNUT knockout mice (VNUT KO + IMQ) to induce psoriatic symptoms. […] For a negative control, only 20% glycerin solution was applied. In IMQ + 1% IMG and IMQ + 0.1% IMG, 20% glycerin solution supplemented with 1% (w/v) imeglimin and 0.1% (w/v) imeglimin, respectively, was applied immediately after the imiquimod application. Further, in IMQ + 1% Clo and IMQ + 0.1% Clo, 20% glycerin solution supplemented with 1% (w/v) clodronate and 0.1% (w/v) clodronate, respectively, was applied immediately after the imiquimod application.

## O=P(O)(O)C(Cl)(Cl)P(=O)(O)O [clodronate]
Topical 20% glycerin solution with 0.1% (w/v) clodronate
  auricular thickening and psoriatic symptoms: the degree of auricular thickening was improved
Topical 20% glycerin solution with 1% (w/v) clodronate
  auricular thickening and psoriatic symptoms: the degree of auricular thickening was improved

## C[C@H]1N=C(N(C)C)N=C(N)N1 [imeglimin]
Example 18, oral 40 mg/kg once daily, Days 1 to 7 (Twymeeg tablets dissolved in saline), N = 5
  epidermal desquamation and psoriatic symptoms of the auricle: eliminated epidermal desquamation and reduced the psoriatic symptoms
Example 18, oral 40 mg/kg once daily, Days 1 to 7, N = 5
  auricle thickening induced by imiquimod: suppressed
Example 19, imeglimin 40 mg/kg orally once daily Day 1 to 7, N = 5
  typical psoriatic symptoms (auricular thickness, desquamation, infiltration, PASI score), except erythema: reduced
Example 19, imeglimin 40 mg/kg orally versus infliximab 100 µg/mouse i.v.
  effect compared with infliximab: almost equivalent, or imeglimin was more effective
Topical 20% glycerin solution with 0.1% (w/v) imeglimin
  auricular thickening and psoriatic symptoms: no effect
Topical 20% glycerin solution with 1% (w/v) imeglimin
  auricular thickening and psoriatic symptoms: the degree of auricular thickening was improved

— patent EP4696306A1, “ADENOSINE TRIPHOSPHATE SECRETION INHIBITOR, HEPATIC STELLATE CELL ACTIVATION INHIBITOR, HEPATIC STELLATE CELL DEACTIVATOR, HEPATIC FIBROSIS THERAPEUTIC AGENT, NON-ALCOHOLIC STEATOHEPATITIS THERAPEUTIC AGENT, PSORIASIS THERAPEUTIC AGENT, AND USE OF COMPOUND FOR PRODUCING ADENOSINE TRIPHOSPHATE …” (KURUME UNIVERSITY, priority 2023, dated 2024)
